Data reported in patent publication US20070117743A1, “New antitumoral compounds” (priority 2003, published 2007).
Read-outs that look alike come from different tables or passages of the source. Where a SMILES comes first, the peptide text is derived from it. Bridges are numbered along the chain shown (N, C = ends). [ ]: non-standard residue; d: D form. The star is where a group is joined. d(aIle) = CC[C@H](C)[C@@H](N)C(=O)O; d(aThr) = C[C@@H](O)[C@@H](N)C(=O)O; hCha = N[C@@H](CCC1CCCCC1)C(=O)O; Hexanoyl(5-Me) = CC(C)CCCC(=O)*; dCha = N[C@H](CC1CCCCC1)C(=O)O; Orn = NCCC[C@H](N)C(=O)O; Dhb = C/C=C(\N)C(=O)O

Experiments:
Format in all cases: cell-based, human
A-549 = assay: SRB colorimetric assay of cell growth and viability, A-549; details: 48 hours exposure; for GI50: read-out: GI50 A-549; for CC50: read-out: LC50 A-549
SK-MEL-28 = assay: SRB colorimetric assay of cell growth and viability, SK-MEL-28; details: 48 hours exposure; for CC50: read-out: LC50 MEL-28
HT-29 = assay: SRB colorimetric assay of cell growth and viability, HT-29; details: 48 hours exposure; for GI50: read-out: GI50 HT-29; for CC50: read-out: LC50 HT-29
LoVo = assay: SRB colorimetric assay of cell growth and viability, LoVo; details: 48 hours exposure; for CC50: read-out: LC50 LOVO
LoVo-Dox = assay: SRB colorimetric assay of cell growth and viability, LoVo-Dox; details: 48 hours exposure; for CC50: read-out: LC50 LOVO-DOX
Method in brief: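 Cells in RPMI 1640 with 10% FBS were seeded at 5×10^3 per well and left 18 hours drug-free before compounds (10 to 10^−8 μg/mL in DMSO:EtOH:PBS 0.5:0.5:99) were added for 48 hours. TCA-fixed cells were stained with SRB and read at 490 nm; triplicate wells gave GI, TGI and LC.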

DU-145 = assay: SRB colorimetric assay of cell growth and viability, DU-145; details: 48 hours exposure
LNCaP = assay: SRB colorimetric assay of cell growth and viability, LNCaP; details: 48 hours exposure; for GI50: read-out: GI50 LN-caP; for CC50: read-out: LC50 LN-caP
SK-BR-3 = assay: SRB colorimetric assay of cell growth and viability, SK-BR-3; details: 48 hours exposure
IGROV-1 = assay: SRB colorimetric assay of cell growth and viability, IGROV-1; details: 48 hours exposure
IGROV-ET = assay: SRB colorimetric assay of cell growth and viability, IGROV-ET; details: 48 hours exposure; for CC50: read-out: LC50 IGROV-ET
HeLa = assay: SRB colorimetric assay of cell growth and viability, HeLa; details: 48 hours exposure; for CC50: read-out: LC50 HELA
HeLa-APL = assay: SRB colorimetric assay of cell growth and viability, HeLa-APL; details: 48 hours exposure; for CC50: read-out: LC50 HELA-APL
K-562 = assay: SRB colorimetric assay of cell growth and viability, K-562; details: 48 hours exposure; for CC50: read-out: LC50 K-562
PANC-1 = assay: SRB colorimetric assay of cell growth and viability, PANC-1; details: 48 hours exposure; for CC50: read-out: LC50 PANC-1

With `C/C=C1\NC(=O)[C@H](Cc2ccccc2)NC(=O)[C@@H](C(C)C)NC(=O)[C@@H](C(C)CC)NC(=O)[C@H](NC(=O)[C@H](NC(=O)[C@H](CCCN)NC(=O)[C@H]2CCCN2C(=O)[C@H](NC(=O)[C@@H](NC(=O)[C@@H](NC(=O)[C@H](NC(=O)CCC(C)CC)C(C)C)C(C)O)C(C)C)C(C)C)C(C)CC)C(C)OC(=O)[C@H](C(C)C)NC1=O` (stereo partly drawn) [Compound 1, (4S)-MeHex-D-Val-ThrVal-D-Val-D-Pro-Orn-D-allo-Ile-cyclo[D-allo-Thr-D-allo-Ile-D-Val-Phe-(Z)Dhb-Val]] the “TGI A-549” value (A-549) was 2.05E−06 Molar, the GI50 (A-549) was 907 nM and the CC50 (A-549) was 4630 nM. The GI50 (SK-MEL-28) was 315 nM, the “TGI MEL-28” value (SK-MEL-28) was 4.10E−07 Molar and the CC50 (SK-MEL-28) was 2100 nM. For the same molecule, the “TGI HT-29” value (HT-29) was 2.18E−07 Molar, the GI50 (HT-29) was 95.4 nM and the CC50 (HT-29) was 498 nM. For the same molecule, the GI50 (LoVo) was 116 nM, the “TGI LOVO” value (LoVo) was 2.42E−07 Molar and the CC50 (LoVo) was 502 nM. For the same molecule, the GI50 (LoVo-Dox) was 63.6 nM, the “TGI LOVO-DOX” value (LoVo-Dox) was 2.29E−07 Molar and the CC50 (LoVo-Dox) was 1430 nM. For the same molecule, the GI50 (DU-145) was 327 nM, the LC50 (concentration causing 50% net cell kill) (DU-145) was 2540 nM and the “TGI DU-145” value (DU-145) was 8.80E−07 Molar. For the same molecule, the “TGI LN-caP” value (LNCaP) was 2.14E−06 Molar, the GI50 (LNCaP) was 900 nM and the CC50 (LNCaP) was 5080 nM. The GI50 (SK-BR-3) was 43.4 nM, the LC50 (SK-BR-3) was 469 nM and the “TGI SK-BR-3” value (SK-BR-3) was 9.27E−08 Molar. The GI50 (IGROV-1) was 158 nM, the LC50 (concentration causing 50% net cell killing) (IGROV-1) was 641 nM and the “TGI IGROV” value (IGROV-1) was 3.19E−07 Molar. The GI50 (IGROV-ET) was 135 nM, the “TGI IGROV-ET” value (IGROV-ET) was 2.89E−07 Molar and the CC50 (IGROV-ET) was 619 nM. The GI50 (HeLa) was 254 nM, the “TGI HELA” value (HeLa) was 7.38E−07 Molar and the CC50 (HeLa) was 2560 nM. The GI50 (HeLa-APL) was 556 nM, the “TGI HELA-APL” value (HeLa-APL) was 1.52E−06 Molar and the CC50 (HeLa-APL) was 3810 nM. The GI50 (K-562) was 1620 nM, the “TGI K-562” value (K-562) was 2.96E−06 Molar and the CC50 (K-562) was 5400 nM. For the same molecule, the GI50 (PANC-1) was 1820 nM, the “TGI PANC-1” value (PANC-1) was 3.66E−06 Molar and the CC50 (PANC-1) was at least 6770 nM.

With `C/C=C1\NC(=O)[C@H](Cc2ccccc2)NC(=O)[C@@H](C(C)C)NC(=O)[C@@H]([C@@H](C)CC)NC(=O)[C@H](NC(=O)[C@H](NC(=O)[C@H](CCCN)NC(=O)[C@H]2CCCN2C(=O)[C@H](NC(=O)[C@H](CCC2CCCCC2)NC(=O)[C@@H](NC(=O)[C@@H](CC2CCCCC2)NC(=O)CCCC(C)C)[C@@H](C)O)C(C)C)[C@@H](C)CC)[C@@H](C)OC(=O)[C@H](C(C)C)NC1=O` [Compound 10, [hCh^11, D-Cha^13]-KF] ({Hexanoyl(5-Me)}-[dCha]T[hCha][dV][dP][Orn][d(aIle)][d(aThr)][d(aIle)][dV]F[Dhb]V; ester 8-C) the “TGI A-549” value (A-549) was 6.25E−06 Molar, the GI50 (A-549) was 3560 nM and the CC50 (A-549) was 6250 nM. The GI50 (SK-MEL-28) was 3100 nM, the “TGI MEL-28” value (SK-MEL-28) was 6.25E−06 Molar and the CC50 (SK-MEL-28) was 6250 nM. For the same molecule, the “TGI HT-29” value (HT-29) was 1.96E−06 Molar, the GI50 (HT-29) was 1060 nM and the CC50 (HT-29) was 3580 nM. For the same molecule, the GI50 (LoVo) was 1120 nM, the “TGI LOVO” value (LoVo) was 2.27E−06 Molar and the CC50 (LoVo) was 4590 nM. For the same molecule, the GI50 (LoVo-Dox) was 537 nM, the “TGI LOVO-DOX” value (LoVo-Dox) was 1.30E−06 Molar and the CC50 (LoVo-Dox) was 2940 nM. For the same molecule, the GI50 (DU-145) was 4290 nM, the LC50 (concentration causing 50% net cell kill) (DU-145) was 6250 nM and the “TGI DU-145” value (DU-145) was 6.25E−06 Molar. The “TGI LN-caP” value (LNCaP) was 6.25E−06 Molar, the GI50 (LNCaP) was 4890 nM and the CC50 (LNCaP) was 6250 nM. The GI50 (SK-BR-3) was 1310 nM, the LC50 (SK-BR-3) was 4160 nM and the “TGI SK-BR-3” value (SK-BR-3) was 2.32E−06 Molar. The GI50 (IGROV-1) was 1990 nM, the LC50 (concentration causing 50% net cell killing) (IGROV-1) was 6250 nM and the “TGI IGROV” value (IGROV-1) was 3.84E−06 Molar. For the same molecule, the GI50 (IGROV-ET) was 2230 nM, the “TGI IGROV-ET” value (IGROV-ET) was 4.56E−06 Molar and the CC50 (IGROV-ET) was 6250 nM. For the same molecule, the GI50 (HeLa) was 2670 nM, the “TGI HELA” value (HeLa) was 6.25E−06 Molar and the CC50 (HeLa) was 6250 nM. The GI50 (HeLa-APL) was 3670 nM, the “TGI HELA-APL” value (HeLa-APL) was 6.25E−06 Molar and the CC50 (HeLa-APL) was 6250 nM. For the same molecule, the GI50 (K-562) was 6250 nM, the “TGI K-562” value (K-562) was 6.25E−06 Molar and the CC50 (K-562) was 6250 nM.

With `C/C=C1\NC(=O)[C@H](Cc2ccc(F)cc2)NC(=O)[C@@H](C(C)C)NC(=O)[C@@H]([C@@H](C)CC)NC(=O)[C@H](NC(=O)[C@H](NC(=O)[C@H](CCCN)NC(=O)[C@H]2CCCN2C(=O)[C@H](NC(=O)[C@@H](NC(=O)[C@@H](NC(=O)[C@H](NC(=O)CC[C@@H](C)CC)C(C)C)[C@@H](C)O)C(C)C)C(C)C)[C@@H](C)CC)[C@@H](C)OC(=O)[C@H](C(C)C)NC1=O` [Compound 74, [Phe(4-F)^3, (4S)-MeHex^14]-KF] the “TGI A-549” value (A-549; SRB) was 1.76E−06 Molar, the GI50 (A-549; SRB) was 956 nM and the CC50 (A-549; SRB) was 3230 nM. The GI50 (SK-MEL-28; SRB) was 829 nM, the “TGI MEL-28” value (SK-MEL-28; SRB) was 1.64E−06 Molar and the CC50 (SK-MEL-28; SRB) was 3230 nM. The “TGI HT-29” value (HT-29; SRB) was 2.61E−07 Molar, the GI50 (HT-29; SRB) was 137 nM and the CC50 (HT-29; SRB) was 499 nM. For the same molecule, the GI50 (LoVo; SRB) was 139 nM, the “TGI LOVO” value (LoVo; SRB) was 2.35E−07 Molar and the CC50 (LoVo; SRB) was 395 nM. For the same molecule, the GI50 (LoVo-Dox; SRB) was 153 nM, the “TGI LOVO-DOX” value (LoVo-Dox; SRB) was 3.09E−07 Molar and the CC50 (LoVo-Dox; SRB) was 624 nM. For the same molecule, the GI50 (DU-145; SRB) was 796 nM, the LC50 (concentration causing 50% net cell kill) (DU-145; SRB) was 3250 nM and the “TGI DU-145” value (DU-145; SRB) was 1.61E−06 Molar. For the same molecule, the “TGI LN-caP” value (LNCaP; SRB) was 1.02E−06 Molar, the GI50 (LNCaP; SRB) was 402 nM and the CC50 (LNCaP; SRB) was 2590 nM. The GI50 (SK-BR-3; SRB) was 213 nM, the LC50 (SK-BR-3; SRB) was 495 nM and the “TGI SK-BR-3” value (SK-BR-3; SRB) was 3.24E−07 Molar. The GI50 (IGROV-1; SRB) was 206 nM, the LC50 (concentration causing 50% net cell killing) (IGROV-1; SRB) was 943 nM and the “TGI IGROV” value (IGROV-1; SRB) was 3.88E−07 Molar. For the same molecule, the GI50 (IGROV-ET; SRB) was 212 nM, the “TGI IGROV-ET” value (IGROV-ET; SRB) was 3.18E−07 Molar and the CC50 (IGROV-ET; SRB) was 477 nM. The GI50 (HeLa; SRB) was 214 nM, the “TGI HELA” value (HeLa; SRB) was 3.78E−07 Molar and the GI50 (HeLa-APL; SRB) was 675 nM. The “TGI HELA-APL” value (HeLa-APL; SRB) was 1.46E−06 Molar, the CC50 (HeLa-APL; SRB) was 3150 nM and the GI50 (PANC-1; SRB) was 1080 nM. The “TGI PANC-1” value (PANC-1; SRB) was 1.98E−06 Molar and the CC50 (PANC-1; SRB) was 3600 nM.
